Reference: patent publication US20190076507A1, “Artificial Red Blood Cell Having Ability to Inhibit Conversion of Hemoglobin into Methemoglobin” (Public University Corporation Nara Medical University, priority 2016, published 2019)

What was measured:
Format in all cases: biochemical
[1] = Catalase (pseudo CAT) activity from change of absorbance at 230 nm of H2O2
Protocol: (§1) The activity of NADH-cytochrome b5 reductase in the above-mentioned purified and concentrated HbCO solution was determined as NADH-ferricyanide reductase activity according to Beutler, E. above. Diluted Hb samples comprising the enzyme to be measured is mixed with a buffer comprising NADH. The mixed solutions were left standing for 10 minutes at 30° C., and then potassium ferricyanide (K3Fe (CN)6), the enzyme substrate, was added to start the enzyme reaction. The decrease of difference of absorbance at 340 nm, a characteristic absorption of NADH, per minute was measured to determine activity unit E (IU/gHb). […] It was reasoned that the heat-labile NADH-cytochrome b5 reductase was eliminated as denatured and insoluble, or denatured and inactivated, due to the introduction of heat treatment during the purifying step. In addition, activities of NADPH metHb reductase and NADPH diaphorase, which correspond to NADPH-flavin reductase are also determined by the above-mentioned methods according to Beutler, E. Diluted blood samples comprising the enzyme to be measured is mixed with a buffer comprising NADPH. The mixed solutions were left standing for 10 minutes at 37° C., and then methylene bleu (MeBl), the enzyme substrate, was added to start the enzyme reaction. The decrease of difference of absorbance at 340 nm, a characteristic absorption of NADPH, per minute was measured to determine activity unit E (IU/gHb). […] Catalase activity of the purified HbCO solution was determined from the change of the absorbance at 230 nm, the absorption wavelength of H2O2, according to Beutler, E. (RED CELL METABOLISM: A MANUAL OF BIOCHEMICAL METHOD, Grune &Stratton, Inc. pp. 105-106 (1987)). […] Pyrogallol was used for measurement of SOD activity (Marklund, S. and Marklund, G., Eur. J. Biochem. 47, 469-474 (1974); Roth, E. F. Jr. and Gilbert, H. S., Anal. Biochem. 137, 50-53(1984)). Pyrogallol is oxidized with oxygen to generate superoxide, and further reacted to generate a yellow dye with absorbance at 420 nm. SOD inhibits this reaction. SOD enzyme activity was determined based on this inhibitory activity. Analyzed specimens were solutions of purified HbO2, HbCO, metHb and solutions thereof further comprising NADH or L-tyrosine In addition, enzyme activity of crude SFHb solution was also determined as a control. […] When NADH and HbO2 were coexisted, however, high CAT and SOD pseudo activities (Table 1). […] The pseudo activity was detected when NADH alone was present, however, the activity was about a tenth ( 1/10) compared with when HbO2 was coexisted. […] There were results showing that this pseudo activity increased as more NADH was added.

[2] = SOD (pseudo SOD) activity, pyrogallol method; details: ratio
Protocol: as §1

[3] = biological target: T1, HbO2 (Homo sapiens, UniProt P68871+P69905); experiment: Screening of suppressing effect of compounds against autoxidation of HbO2; details: HbO2 10 g/dL, antioxidant 1 g/dL, 37° C., 24 hours
T1 construct: The Hb released by hemolysis was filtered and collected, with the red blood cell membrane components (stroma) separated and removed; from tissue; host or cells: human red blood cells (expired donated blood); heat-treated, nanofiltered, purified and concentrated HbCO, photoconverted to HbO2
Protocol: NADH was purchased from Oriental Yeast Co. Ltd., and all the rest were purchased from Sigma-Aldrich (St. Louis, Mo., USA). HbCO solution was transferred to an eggplant flask and irradiated with visible light (halogen lamp; LPL Videeoligtvl-302, LPLCO. Ltd., Tokyo, Japan) under oxygen gas flow to convert to HbO2. […] The conversion ratios to metHb were determined from the visible absorption spectrum. The measurement of spectrum between 300 nm to 500 nm was conducted using a spectrophotometer (V-660, Japan Spectroscopic Company (JASCO)) mounted with a device to control the light scattering to the minimum (an integrating sphere). The atmosphere inside of a Thunberg cuvette was replaced with nitrogen gas and the conversion ratios to metHb were determined from the ratios of absorbance at 405 nm (λmax of metHb) and 430 nm (λmax of deoxyHb).

[4] = biological target: T1, HbO2; experiment: Oxidant-promoted metHb conversion in non-encapsulated HbO2 solution with NADH (absorbance at 630 nm); details: 10 and 40 minutes, vs no NADH
Protocol: To examine the suppression of Hb oxidation by encapsulation of NADH further in detail, similar experiments were carried out for Hb solution which was not encapsulated.
(1) First, metHb conversion supplemented with NOC7 was studied. To a cuvette with an optical path length of 1 cm, 3 mL of phosphate buffered saline, 30 μL of HbO2 solution (1.5 mM), 30 μL of NADH solution (1.5 mM) and 30 μL of NOC (1.5 mM in PBS) were mixed and the change of absorbance at 630 nm, the absorption wavelength of metHb, at 25° C. was immediately monitored for 10 minutes and for 40 minutes (FIGS. 6A and 6B). In the graphs of FIGS. 6A and 6B, the absorbance at 630 nm was put on the vertical axis and incubation time (second) was put on the horizontal axis. The three lines in FIG. 6A represent a change over time of metHb when the solution comprising HbO2 and NADH was supplemented with NOC7 (HbO2+NADH+NOC7), a change over time of metHb when the solution comprising HbO2 but not NADH was supplemented with NOC7 (HbO2+NOC7) and a change over time of metHb when the solution comprising HbO2 was neither supplemented with NADH nor NOC7 (HbO2+water). […] To a cuvette with an optical path length of 1 cm, 3 mL of PBS, 30 μL of HbO2 solution (1.5 mM), 30 μL of NADH solution (1.5 mM) and 30 μL of H2O2 (1.5 mM) were mixed and the change of absorbance at 630 nm at 25° C. was immediately monitored for 10 minutes and for 40 minutes (FIGS. 7A and 7B). In the graphs of FIGS. 7A and 7B, the absorbance at 630 nm was put on the vertical axis and incubation time (second) was put on the horizontal axis. […] To a cuvette with an optical path length of 1 cm, 3 mL of PBS, 30 μL of HbO2 solution (1.5 mM), 30 μL of NADH solution (1.5 mM) and 30 μL of NaNO2 (1.5 mM in PBS) were mixed and the change of absorbance at 630 nm at 25° C. was immediately monitored for 10 minutes and for 40 minutes (FIGS. 8A and […]). In the graphs of FIGS. 8A and […], the absorbance at 630 nm was put on the vertical axis and incubation time (second) was put on the horizontal axis. […]

[5] = biological target: T2, NADH-cytochrome b5 reductase (Homo sapiens, UniProt P00387); experiment: NADH-cytochrome b5 reductase activity determined as NADH-ferricyanide reductase activity; details: 30° C., potassium ferricyanide substrate, decrease of absorbance at 340 nm
T2 construct: from tissue; host or cells: human red blood cells (expired donated blood), crude stroma-free haemolysate (SFHb)
T2 sequence (P00387 1-278 isoform P00387-2): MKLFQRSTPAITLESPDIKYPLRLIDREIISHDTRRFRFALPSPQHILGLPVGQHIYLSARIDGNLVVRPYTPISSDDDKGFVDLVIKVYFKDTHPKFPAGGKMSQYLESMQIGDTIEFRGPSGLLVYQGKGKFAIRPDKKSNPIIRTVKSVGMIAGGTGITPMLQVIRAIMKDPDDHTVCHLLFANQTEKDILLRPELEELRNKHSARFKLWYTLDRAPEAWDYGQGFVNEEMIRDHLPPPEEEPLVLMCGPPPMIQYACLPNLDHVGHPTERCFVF
Protocol: For the enzyme for reducing metHb herein, “substantially free of enzyme activity” means that the enzyme activity is 10%, 5%, 3%, 1%, 0.5%, 0.2%, 0.1%, 0.05% or 0.03% or less, or below detectable limits, of enzyme activity of the enzyme for reducing metHb existing in the Hb solution purified and concentrated from blood derived from humans or domestic animals. The enzyme activity of the enzyme for reducing metHb herein disclosed herein is determined, for example, by the following procedure. Determination of NADH-cytochrome b5 reductase may be carried out according to Beutler, E. (RED CELL METABOLISM: A MANUAL OF BIOCHEMICAL METHOD, Grune &Stratton, Inc., pp. 81-82 (1987)). […]
the enzyme activity is measured by tracing the degree of acceleration by adding sample comprising oxygen. The measurement is carried out by measuring the change (decrease) in absorbance at 340 nm which is the characteristic absorption of the consumed NADH.
The activity of NADH-cytochrome b5 reductase in the above-mentioned purified and concentrated HbCO solution was determined as NADH-ferricyanide reductase activity according to Beutler, E. above. Diluted Hb samples comprising the enzyme to be measured is mixed with a buffer comprising NADH. […] The decrease of difference of absorbance at 340 nm, a characteristic absorption of NADH, per minute was measured to determine activity unit E (IU/gHb). […]

[6] = biological target: T3, NADPH-flavin reductase (Homo sapiens, UniProt P30043); experiment: NADPH metHb reductase / NADPH diaphorase (NADPH-flavin reductase) activity with methylene blue; details: 37° C., methylene blue substrate, decrease of absorbance at 340 nm
T3 construct: from tissue; host or cells: human red blood cells (expired donated blood), crude stroma-free haemolysate (SFHb)
T3 sequence (P30043 1-206): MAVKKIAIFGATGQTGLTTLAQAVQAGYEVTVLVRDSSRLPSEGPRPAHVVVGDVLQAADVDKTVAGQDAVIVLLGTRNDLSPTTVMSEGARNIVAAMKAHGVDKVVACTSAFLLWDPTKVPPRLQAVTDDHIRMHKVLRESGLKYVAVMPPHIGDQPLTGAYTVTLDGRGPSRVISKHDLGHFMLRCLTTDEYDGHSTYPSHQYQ
Protocol: Determination of NADPH-flavin reductase activity may be carried out according to Beutler, E. (RED CELL METABOLISM: A MANUAL OF BIOCHEMICAL METHOD, Grune &Stratton, Inc., pp. 79-80 (1987)). The principle of determination of this method is to measure […]. The reaction of reducing methylene bleu (MeBl) to leucomethylene blue (LeukMeBl) as follows:
NADPH+H^++MeBl→NADP^++LeukMeBl
the reaction is known to be slow. The enzyme activity is measured by tracing the degree of acceleration by adding sample comprising oxygen. The measurement is carried out based on the above-mentioned principle by measuring the change (decrease) in absorbance at 340 nm which is the characteristic absorption of the consumed NADPH.
The activity of NADH-cytochrome b5 reductase in the above-mentioned purified and concentrated HbCO solution was determined as NADH-ferricyanide reductase activity according to Beutler, E. above. Diluted Hb samples comprising the enzyme to be measured is mixed with a buffer comprising NADH. […] The decrease of difference of absorbance at 340 nm, a characteristic absorption of NADH, per minute was measured to determine activity unit E (IU/gHb). […] The decrease of difference of absorbance at 340 nm, a characteristic absorption of NADPH, per minute was measured to determine activity unit E (IU/gHb). […]

T1 sequence (P69905 2-142 limits assumed): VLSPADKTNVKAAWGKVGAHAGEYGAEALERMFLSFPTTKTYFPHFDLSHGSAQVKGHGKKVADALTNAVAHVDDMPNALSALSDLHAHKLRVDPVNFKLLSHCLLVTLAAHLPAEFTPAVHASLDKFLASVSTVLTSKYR
T1 sequence (P68871 2-147 limits assumed): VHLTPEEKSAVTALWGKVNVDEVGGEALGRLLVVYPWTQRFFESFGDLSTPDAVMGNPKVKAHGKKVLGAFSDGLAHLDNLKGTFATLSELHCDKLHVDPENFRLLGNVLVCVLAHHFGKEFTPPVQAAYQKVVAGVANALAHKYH

Row | NADPH metHb reductase / NADPH diaphorase (NADPH-flavin reductase) activity (activity unit E) [6] | NADPH metHb reductase / NADPH diaphorase (NADPH-flavin reductase) activity (activity unit E) ([6]; listed as Hb solution) | Compound | CAT pseudo activity of NADH alone compared with when HbO2 was coexisted ([1]; ratio) | SOD pseudo activity of NADH alone compared with when HbO2 was coexisted [2] | metHb conversion (%) [3] [%] | increase of metHb-specific absorbance at 630 nm ([4]; HbO2 solution + H2O2, 25° C.) | increase of metHb-specific absorbance at 630 nm ([4]; HbO2 solution + NOC7, 25° C.) | increase of metHb-specific absorbance at 630 nm ([4]; HbO2 solution + NaNO2, 25° C.) | NADH-cytochrome b5 reductase activity (activity unit E) [5] | NADH-cytochrome b5 reductase activity (activity unit E) ([5]; listed as Hb solution) | Catalase activity ([1]; change of absorbance at 230 nm of H2O2, Example 1)
1 | – | – | NC(=O)C1=CN([C@@H]2O[C@H](COP(=O)(O)OP(=O)(O)OC[C@H]3O[C@@H](n4cnc5c(N)ncnc54)[C@H](O)[C@@H]3O)[C@@H](O)[C@H]2O)C=CC1 [NADH, nicotinamide adenine dinucleotide (NADH)] | 1/10 | 1/10 | 17 | remarkably suppressed | remarkably suppressed | remarkably suppressed | – | – | –
2 | below 0.01 IU/gHb | does not show enzymatic activities | purified and concentrated Hb: human Hb purified with heat treatment (60° C., 12 hours) and nanofiltration, concentrated to 40 to 42 g/dL | – | – | – | – | – | – | did not detect any activity | does not show enzymatic activities | ≤ 0.03×10^4 IU/gHb
